Data taken from PMC9515143, “Phosphorylation of Jhd2 by the Ras-cAMP-PKA(Tpk2) pathway regulates histone modifications and autophagy” (Nature Communications, 2022).

Test system: H3K4me3
Experiment: Western blot of H3K4 methylation in mutants
Format: cell-based, budding yeast (Saccharomyces cerevisiae)
Experimental: Cells were grown in 5 ml YPD or selective medium until OD600 of 0.7–1.0. Cells were harvested and lysed in alkaline lysis buffer (2 M NaOH, 8% 2-mercaptoethanol). After centrifugation, the protein pellet was resuspended in 150 μl 2×SDS-sample buffer. Protein samples were separated by 8–15% SDS-PAGE and transferred to PVDF membrane. The blots were probed with primary antibodies followed by incubation with horseradish peroxidase-labelled IgG secondary antibodies. The protein bands were visualized using the ECL Chemiluminescence Detection Kit (Bio-Rad, 170–5061) and quantified with Image J software (v.1.8.0).

OC[C@H]1OC(O)[C@H](O)[C@@H](O)[C@@H]1O (some centres unmarked) [glucose]
H3K4me3 level in chd1Δ mutant (chd1Δ, different glucose concentrations, 0.5 hr, Western blot (rebuttal)): glucose-induced
H3K4me3 level, WT versus tpk2Δ (increasing glucose concentrations, Western blot): induced H3K4me3 in WT but not tpk2Δ mutant
